Measurements from patent publication US10131652B2, “Pyrimidinyloxy benzene derivatives as herbicides” (E. I. DU PONT DE NEMOURS AND COMPANY, priority 2014, dated 2018).

Columns and labels:
Assay type in all cases: in vivo
[1] = system: kochia (Kochia scoparia); assay: Test B pre-/postemergence plant response
How it was run: (§1)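 Evaluation is visual, about 10 days after application, rating injury from 0 (none) to 100 (complete control) relative to untreated controls. Application was a preemergence soil spray on seeded pots or a postemergence spray on one- to two-leaf plants.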

[2] = system: Italian ryegrass (Lolium multiflorum); assay: Test B pre-/postemergence plant response
How it was run: as §1

[3] = system: ragweed (common ragweed, Ambrosia elatior); assay: Test B pre-/postemergence plant response
How it was run: as §1

[4] = system: velvetleaf (Abutilon theophrasti); assay: Test D pre-/postemergence plant response; conditions: Postemergence; for Plant response rating (scale 0 to 100), Velvetleaf: 16 g ai/ha; for Plant response rating, Velvetleaf: 125 g ai/ha
How it was run: (§2)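 Seeds were planted in a loam and sand blend and sprayed preemergence. In parallel, seedlings grown in peat moss/vermiculite medium were sprayed postemergence at 2 to 18 cm height. Both used a surfactant-containing non-phytotoxic solvent. Greenhouse ratings at 13 to 15 days used a 0–100 control scale.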

[5] = system: morningglory (Ipomoea coccinea); assay: Test D pre-/postemergence plant response; conditions: Postemergence; for Plant response rating (scale 0 to 100), Morningglory: 16 g ai/ha; for Plant response rating, Morningglory: 125 g ai/ha
How it was run: as §2

[6] = system: waterhemp (common waterhemp, Amaranthus rudis); assay: Test D pre-/postemergence plant response; conditions: Postemergence; for Plant response rating (scale 0 to 100), Waterhemp: 16 g ai/ha; for Plant response rating, Waterhemp: 125 g ai/ha
How it was run: as §2

[7] = system: lambsquarters (Chenopodium album); assay: Test D pre-/postemergence plant response; conditions: Postemergence; for Plant response rating (scale 0 to 100), Lambsquarters: 16 g ai/ha; for Plant response rating, Lambsquarters: 125 g ai/ha
How it was run: as §2

[8] = system: soybean (Glycine max); assay: Test D pre-/postemergence plant response; conditions: Postemergence; for Plant response rating (scale 0 to 100), Soybean: 16 g ai/ha; for Plant response rating, Soybean: 125 g ai/ha
How it was run: as §2

[9] = system: corn (Zea mays); assay: Test D pre-/postemergence plant response; conditions: Postemergence; for Plant response rating (scale 0 to 100), Corn: 16 g ai/ha; for Corn plant response rating: 31 g ai/ha, scale 0 to 100 (0 no effect, 100 complete control); for Plant response rating, Corn: scale 0 to 100, 0 no effect, 100 complete control
How it was run: as §2

[10] = system: Italian ryegrass (Lolium multiflorum); assay: Test D pre-/postemergence plant response; conditions: Postemergence; for Plant response rating (scale 0 to 100), Ryegrass, Italian: 16 g ai/ha; for Plant response rating, Ryegrass, Italian: 125 g ai/ha
How it was run: as §2

[11] = system: giant foxtail (Setaria faberii); assay: Test D pre-/postemergence plant response; conditions: Postemergence; for Plant response rating (scale 0 to 100), Foxtail, Giant: 16 g ai/ha; for Foxtail, Giant plant response rating: 31 g ai/ha, scale 0 to 100 (0 no effect, 100 complete control); for Plant response rating, Foxtail, Giant: scale 0 to 100, 0 no effect, 100 complete control
How it was run: as §2

[12] = system: large (Lg) crabgrass (Digitaria sanguinalis); assay: Test D pre-/postemergence plant response; conditions: Postemergence; for Plant response rating (scale 0 to 100), Crabgrass, Large: 16 g ai/ha; for Crabgrass, Large plant response rating: 31 g ai/ha, scale 0 to 100 (0 no effect, 100 complete control); for Plant response rating, Crabgrass, Large: scale 0 to 100, 0 no effect, 100 complete control
How it was run: as §2

[13] = system: blackgrass (Alopecurus myosuroides); assay: Test D pre-/postemergence plant response; conditions: Postemergence; for Plant response rating (scale 0 to 100), Blackgrass: 16 g ai/ha; for Blackgrass plant response rating: 31 g ai/ha, scale 0 to 100 (0 no effect, 100 complete control); for Plant response rating, Blackgrass: scale 0 to 100, 0 no effect, 100 complete control
How it was run: as §2

[14] = system: barnyardgrass (Echinochloa crus-galli); assay: Test D pre-/postemergence plant response; conditions: Postemergence; for Plant response rating (scale 0 to 100), Barnyardgrass: 16 g ai/ha; for Barnyardgrass plant response rating: 31 g ai/ha, scale 0 to 100 (0 no effect, 100 complete control); for Plant response rating, Barnyardgrass: scale 0 to 100, 0 no effect, 100 complete control
How it was run: as §2

[15] = system: pigweed (Amaranthus retroflexus); assay: Test D pre-/postemergence plant response; conditions: Postemergence; for Plant response rating (scale 0 to 100), Pigweed: 16 g ai/ha; for Plant response rating, Pigweed: 125 g ai/ha
How it was run: as §2

[16] = 31 g ai/ha, Preemergence, 0 to 100 scale where 0 is no effect and 100 is complete control
[17] = 125 g ai/ha, postemergence, 0 to 100 scale, 0 no effect, 100 complete control
[18] = Postemergence, 31 g ai/ha, 0 to 100 scale (0 no effect, 100 complete control)
[19] = Preemergence, 125 g ai/ha, 0 to 100 scale (0 no effect, 100 complete control)
[20] = 31 g ai/ha, scale 0 to 100 (0 no effect, 100 complete control)
[21] = 62 g ai/ha, scale 0 to 100, 0 no effect, 100 complete control
[22] = scale 0 to 100, 0 no effect, 100 complete control
[23] = Postemergence, 500 g ai/ha, 0 to 100 scale (0 no effect, 100 complete control)
[24] = Preemergence, 500 g ai/ha, 0 to 100 scale where 0 is no effect and 100 is complete control

Compound: FCc1cc(-c2ccccc2Oc2ncc(Cl)cn2)on1 [Compound 224]
- Plant response rating, Kochia [1, 16]: 60
- Plant response rating, Kochia [1, 17]: 100
- Plant response rating, Kochia [1, 18]: 70
- Kochia plant response rating [1, 19]: 90
- Plant response rating, Ryegrass, Italian [2, 16]: 0
- Plant response rating, Ryegrass, Italian [2, 17]: 0
- Plant response rating, Ryegrass, Italian [2, 18]: 0
- Ryegrass, Italian plant response rating [2, 19]: 0
- Plant response rating, Ragweed [3, 17]: 100
- Plant response rating, Ragweed [3, 18]: 50
- Plant response rating (scale 0 to 100), Velvetleaf [4]: 10
- Velvetleaf plant response rating [4, 20]: 25
- Velvetleaf plant response rating [4, 21]: 30
- Plant response rating, Velvetleaf [4, 22]: 60
- Plant response rating (scale 0 to 100), Morningglory [5]: 15
- Morningglory plant response rating [5, 20]: 35
- Morningglory plant response rating [5, 21]: 35
- Plant response rating, Morningglory [5, 22]: 80
- Plant response rating (scale 0 to 100), Waterhemp [6]: 70
- Waterhemp plant response rating [6, 20]: 75
- Waterhemp plant response rating [6, 21]: 85
- Plant response rating, Waterhemp [6, 22]: 85
- Plant response rating (scale 0 to 100), Lambsquarters [7]: 55
- Lambsquarters plant response rating [7, 20]: 75
- Lambsquarters plant response rating [7, 21]: 80
- Plant response rating, Lambsquarters [7, 22]: 85
- Plant response rating (scale 0 to 100), Soybean [8]: 35
- Soybean plant response rating [8, 20]: 40
- Soybean plant response rating [8, 21]: 65
- Plant response rating, Soybean [8, 22]: 75
- Plant response rating (scale 0 to 100), Corn [9]: 0
- Corn plant response rating [9]: 5
- Plant response rating, Corn ([9]; 62 g ai/ha): 5
- Plant response rating, Corn ([9]; 125 g ai/ha): 5
- Plant response rating (scale 0 to 100), Ryegrass, Italian [10]: 0
- Ryegrass, Italian plant response rating [10, 20]: 0
- Ryegrass, Italian plant response rating [10, 21]: 0
- Plant response rating, Ryegrass, Italian [10, 22]: 0
- Plant response rating (scale 0 to 100), Foxtail, Giant [11]: 0
- Foxtail, Giant plant response rating [11]: 5
- Plant response rating, Foxtail, Giant ([11]; 62 g ai/ha): 5
- Plant response rating, Foxtail, Giant ([11]; 125 g ai/ha): 40
- Plant response rating (scale 0 to 100), Crabgrass, Large [12]: 5
- Crabgrass, Large plant response rating [12]: 5
- Plant response rating, Crabgrass, Large ([12]; 62 g ai/ha): 10
- Plant response rating, Crabgrass, Large ([12]; 125 g ai/ha): 10
- Plant response rating (scale 0 to 100), Blackgrass [13]: 0
- Blackgrass plant response rating [13]: 0
- Plant response rating, Blackgrass ([13]; 62 g ai/ha): 5
- Plant response rating, Blackgrass ([13]; 125 g ai/ha): 0
- Plant response rating (scale 0 to 100), Barnyardgrass [14]: 5
- Barnyardgrass plant response rating [14]: 5
- Plant response rating, Barnyardgrass ([14]; 62 g ai/ha): 10
- Plant response rating, Barnyardgrass ([14]; 125 g ai/ha): 15
- Plant response rating (scale 0 to 100), Pigweed [15]: 85
- Pigweed plant response rating [15, 20]: 85
- Pigweed plant response rating [15, 21]: 85
- Plant response rating, Pigweed [15, 22]: 90

Compound: Clc1cnc(Oc2ccccc2-c2ccon2)nc1 [Compound 185]
- Plant response rating, Kochia [1, 17]: 90
- Plant response rating, Kochia [1, 23]: 100
- Kochia plant response rating [1, 19]: 40
- Plant response rating, Kochia [1, 24]: 100
- Plant response rating, Ryegrass, Italian [2, 17]: 0
- Plant response rating, Ryegrass, Italian [2, 23]: 0
- Ryegrass, Italian plant response rating [2, 19]: 0
- Plant response rating, Ryegrass, Italian [2, 24]: 0
- Plant response rating, Ragweed [3, 17]: 70
- Plant response rating, Ragweed [3, 23]: 100
- Ragweed plant response rating [3, 19]: 10
- Plant response rating, Ragweed [3, 24]: 90
- Plant response rating (scale 0 to 100), Velvetleaf [4]: 5
- Velvetleaf plant response rating [4, 20]: 10
- Velvetleaf plant response rating [4, 21]: 10
- Plant response rating, Velvetleaf [4, 22]: 25
- Plant response rating (scale 0 to 100), Morningglory [5]: 0
- Morningglory plant response rating [5, 20]: 25
- Morningglory plant response rating [5, 21]: 10
- Plant response rating, Morningglory [5, 22]: 65
- Plant response rating (scale 0 to 100), Waterhemp [6]: 5
- Waterhemp plant response rating [6, 20]: 25
- Waterhemp plant response rating [6, 21]: 25
- Plant response rating, Waterhemp [6, 22]: 30
- Plant response rating (scale 0 to 100), Lambsquarters [7]: 10
- Lambsquarters plant response rating [7, 20]: 10
- Lambsquarters plant response rating [7, 21]: 15
- Plant response rating, Lambsquarters [7, 22]: 20
- Plant response rating (scale 0 to 100), Soybean [8]: 15
- Soybean plant response rating [8, 20]: 30
- Soybean plant response rating [8, 21]: 35
- Plant response rating, Soybean [8, 22]: 45
- Plant response rating (scale 0 to 100), Corn [9]: 0
- Corn plant response rating [9]: 0
- Plant response rating, Corn ([9]; 62 g ai/ha): 5
- Plant response rating, Corn ([9]; 125 g ai/ha): 5
- Plant response rating (scale 0 to 100), Ryegrass, Italian [10]: 0
- Ryegrass, Italian plant response rating [10, 20]: 0
- Ryegrass, Italian plant response rating [10, 21]: 0
- Plant response rating, Ryegrass, Italian [10, 22]: 0
- Plant response rating (scale 0 to 100), Foxtail, Giant [11]: 35
- Foxtail, Giant plant response rating [11]: 5
- Plant response rating, Foxtail, Giant ([11]; 62 g ai/ha): 5
- Plant response rating, Foxtail, Giant ([11]; 125 g ai/ha): 5
- Plant response rating (scale 0 to 100), Crabgrass, Large [12]: 0
- Crabgrass, Large plant response rating [12]: 0
- Plant response rating, Crabgrass, Large ([12]; 62 g ai/ha): 10
- Plant response rating, Crabgrass, Large ([12]; 125 g ai/ha): 10
- Plant response rating (scale 0 to 100), Blackgrass [13]: 0
- Blackgrass plant response rating [13]: 0
- Plant response rating, Blackgrass ([13]; 62 g ai/ha): 0
- Plant response rating, Blackgrass ([13]; 125 g ai/ha): 0
- Plant response rating (scale 0 to 100), Barnyardgrass [14]: 0
- Barnyardgrass plant response rating [14]: 0
- Plant response rating, Barnyardgrass ([14]; 62 g ai/ha): 0
- Plant response rating, Barnyardgrass ([14]; 125 g ai/ha): 5
- Plant response rating (scale 0 to 100), Pigweed [15]: 10
- Pigweed plant response rating [15, 20]: 35
- Pigweed plant response rating [15, 21]: 35
- Plant response rating, Pigweed [15, 22]: 50
